Test results reported in patent US7700788B2, “Hydroxymethyl furfural oxidation methods” (Battelle Memorial Institute, priority 2006, dated 2010).

Test: Solubility of FDCA in acetic acid/water mixtures
Assay type: physicochemical

## O=C(O)c1ccc(C(=O)O)o1 [FDCA]
0 Vol % HOAc / 100 Vol % H2O, 25° C.
  Solubility: 0.086 wt %
0 Vol % HOAc / 100 Vol % H2O, 70° C.
  Solubility: 0.327 wt %
40/60 HOAc/H2O versus pure water
  Solubility in 40/60 HOAc/H2O relative to pure water: about twice the solubility in pure water
40 Vol % HOAc / 60 Vol % H2O, 25° C.
  Solubility: 0.153 wt %
40 Vol % HOAc / 60 Vol % H2O, 70° C.
  Solubility: 0.779 wt %
50 Vol % HOAc / 50 Vol % H2O, 25° C.
  Solubility: 0.173 wt %
50 Vol % HOAc / 50 Vol % H2O, 70° C.
  Solubility: 0.746 wt %
60 Vol % HOAc / 40 Vol % H2O, 25° C.
  Solubility: 0.171 wt %
60 Vol % HOAc / 40 Vol % H2O, 70° C.
  Solubility: 0.596 wt %
70 Vol % HOAc / 30 Vol % H2O, 25° C.
  Solubility: 0.143 wt %
70 Vol % HOAc / 30 Vol % H2O, 70° C.
  Solubility: 0.592 wt %
90 Vol % HOAc / 10 Vol % H2O, 25° C.
  Solubility: 0.138 wt %
90 Vol % HOAc / 10 Vol % H2O, 70° C.
  Solubility: 0.458 wt %
100 Vol % HOAc / 0 Vol % H2O, 25° C.
  Solubility: 0.080 wt %
100 Vol % HOAc / 0 Vol % H2O, 70° C.
  Solubility: 0.193 wt %
